In assay [1] the target is PIK3CG (human) (UniProt P48736). The experiment in a line: Enzyme Assay.
For assay [2], the target named is PIK3CA (human) (UniProt P42336). The assay can be described thus: Enzyme Assay.
Assay [3] addresses PIK3CD (Human) (UniProt O00329). The assay can be described thus: Enzyme Assay.
For assay [4], the target named is PIK3CG (human) (UniProt P48736). The experiment in a line: Cell-Based Assay. The conditions noted are these: u937.
The target in assay [5] is PIK3CA (human) (UniProt P42336). The experiment in a line: Cell-Based Assay. Conditions: rat-1.
Assay [6] concerns the target PIK3CD (Human) (UniProt O00329). The experiment in a line: Cell-Based Assay. Conditions: rat-1.

Chain of PIK3CA (human) (P42336 whole entry, looked up): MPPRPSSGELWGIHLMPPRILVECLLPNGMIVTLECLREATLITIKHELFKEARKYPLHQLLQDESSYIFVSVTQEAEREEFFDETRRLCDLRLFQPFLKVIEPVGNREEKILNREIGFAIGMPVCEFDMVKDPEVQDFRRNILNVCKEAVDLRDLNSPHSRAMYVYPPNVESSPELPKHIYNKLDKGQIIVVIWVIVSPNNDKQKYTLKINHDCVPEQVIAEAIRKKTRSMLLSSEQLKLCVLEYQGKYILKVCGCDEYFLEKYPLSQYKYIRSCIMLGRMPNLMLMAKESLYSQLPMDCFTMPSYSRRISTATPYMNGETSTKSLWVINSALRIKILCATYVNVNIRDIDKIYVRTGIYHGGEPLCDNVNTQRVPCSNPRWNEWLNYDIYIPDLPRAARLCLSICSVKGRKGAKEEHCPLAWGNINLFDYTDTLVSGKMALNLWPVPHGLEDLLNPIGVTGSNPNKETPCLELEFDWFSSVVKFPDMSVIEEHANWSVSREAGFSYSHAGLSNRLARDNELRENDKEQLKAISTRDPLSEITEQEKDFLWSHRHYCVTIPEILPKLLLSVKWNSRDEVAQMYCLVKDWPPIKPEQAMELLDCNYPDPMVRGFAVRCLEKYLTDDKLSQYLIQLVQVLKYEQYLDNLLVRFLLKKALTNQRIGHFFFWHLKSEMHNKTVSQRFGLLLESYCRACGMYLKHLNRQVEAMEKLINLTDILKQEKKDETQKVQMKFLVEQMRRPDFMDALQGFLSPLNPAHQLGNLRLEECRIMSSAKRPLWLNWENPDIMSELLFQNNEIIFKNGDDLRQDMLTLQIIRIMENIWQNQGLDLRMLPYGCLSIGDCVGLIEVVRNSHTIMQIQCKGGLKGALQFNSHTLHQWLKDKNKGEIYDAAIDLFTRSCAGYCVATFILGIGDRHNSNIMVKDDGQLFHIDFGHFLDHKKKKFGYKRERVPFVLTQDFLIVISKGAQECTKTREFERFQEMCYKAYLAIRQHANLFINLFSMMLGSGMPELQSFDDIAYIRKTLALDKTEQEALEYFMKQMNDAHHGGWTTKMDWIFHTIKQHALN
Chain of PIK3CG (human) (P48736 whole entry, looked up): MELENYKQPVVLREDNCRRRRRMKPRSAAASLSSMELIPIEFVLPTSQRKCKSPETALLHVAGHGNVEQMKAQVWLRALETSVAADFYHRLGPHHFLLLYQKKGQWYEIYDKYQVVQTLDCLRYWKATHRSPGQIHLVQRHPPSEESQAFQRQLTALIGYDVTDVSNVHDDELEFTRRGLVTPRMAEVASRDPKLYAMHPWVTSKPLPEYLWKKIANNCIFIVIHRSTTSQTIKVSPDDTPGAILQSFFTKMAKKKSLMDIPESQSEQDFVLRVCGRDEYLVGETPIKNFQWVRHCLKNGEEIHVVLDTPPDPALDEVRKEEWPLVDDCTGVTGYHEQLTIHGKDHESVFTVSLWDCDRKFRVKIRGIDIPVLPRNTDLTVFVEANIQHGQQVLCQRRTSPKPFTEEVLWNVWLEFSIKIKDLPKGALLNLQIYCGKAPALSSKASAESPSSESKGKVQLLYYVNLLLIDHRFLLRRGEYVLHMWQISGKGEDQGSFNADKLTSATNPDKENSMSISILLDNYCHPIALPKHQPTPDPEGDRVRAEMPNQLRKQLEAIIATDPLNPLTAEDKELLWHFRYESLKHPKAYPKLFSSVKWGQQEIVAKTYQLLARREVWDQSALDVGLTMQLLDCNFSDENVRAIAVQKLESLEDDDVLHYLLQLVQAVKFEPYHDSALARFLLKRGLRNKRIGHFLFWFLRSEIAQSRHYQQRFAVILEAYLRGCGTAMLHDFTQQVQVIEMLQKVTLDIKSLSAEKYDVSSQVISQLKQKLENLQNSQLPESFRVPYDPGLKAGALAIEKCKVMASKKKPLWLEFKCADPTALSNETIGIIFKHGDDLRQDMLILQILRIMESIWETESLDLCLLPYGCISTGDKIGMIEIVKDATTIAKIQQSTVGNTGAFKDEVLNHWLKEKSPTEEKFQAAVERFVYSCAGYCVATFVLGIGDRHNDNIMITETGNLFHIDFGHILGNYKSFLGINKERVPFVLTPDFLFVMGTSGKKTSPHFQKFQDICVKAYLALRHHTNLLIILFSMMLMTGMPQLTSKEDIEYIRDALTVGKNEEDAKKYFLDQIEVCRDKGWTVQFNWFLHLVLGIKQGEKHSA
Chain of PIK3CD (Human) (O00329 whole entry, looked up): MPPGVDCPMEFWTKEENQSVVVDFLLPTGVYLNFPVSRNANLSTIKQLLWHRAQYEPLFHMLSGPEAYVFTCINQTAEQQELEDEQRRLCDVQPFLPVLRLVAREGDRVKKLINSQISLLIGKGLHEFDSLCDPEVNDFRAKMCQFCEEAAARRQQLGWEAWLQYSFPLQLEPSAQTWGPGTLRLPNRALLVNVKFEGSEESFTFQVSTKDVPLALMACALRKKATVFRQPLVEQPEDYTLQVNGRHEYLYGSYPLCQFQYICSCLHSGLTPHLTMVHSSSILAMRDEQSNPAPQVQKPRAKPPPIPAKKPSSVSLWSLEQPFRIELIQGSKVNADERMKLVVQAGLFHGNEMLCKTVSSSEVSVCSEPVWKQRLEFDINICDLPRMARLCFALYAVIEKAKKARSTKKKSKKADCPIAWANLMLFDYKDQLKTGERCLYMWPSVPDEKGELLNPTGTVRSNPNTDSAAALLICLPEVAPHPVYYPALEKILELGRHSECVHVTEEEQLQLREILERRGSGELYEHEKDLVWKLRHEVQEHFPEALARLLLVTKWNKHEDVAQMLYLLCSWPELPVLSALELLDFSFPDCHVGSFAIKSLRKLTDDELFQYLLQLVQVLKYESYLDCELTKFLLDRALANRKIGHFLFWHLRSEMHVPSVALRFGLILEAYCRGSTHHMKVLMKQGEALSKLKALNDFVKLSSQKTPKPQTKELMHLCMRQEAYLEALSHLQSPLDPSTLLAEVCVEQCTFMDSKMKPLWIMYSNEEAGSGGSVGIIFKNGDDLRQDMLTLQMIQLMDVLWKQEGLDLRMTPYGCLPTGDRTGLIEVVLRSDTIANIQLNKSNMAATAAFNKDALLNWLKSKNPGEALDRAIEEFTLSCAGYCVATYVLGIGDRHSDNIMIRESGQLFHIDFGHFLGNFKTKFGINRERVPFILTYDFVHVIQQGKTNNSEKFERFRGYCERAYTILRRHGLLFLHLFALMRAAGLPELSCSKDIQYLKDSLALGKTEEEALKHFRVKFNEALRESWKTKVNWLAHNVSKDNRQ

Take `Cc1nc(N)nc(N2CCC[C@H]2c2nc3ccc(F)c(S(C)(=O)=O)c3c(=O)n2-c2ccccc2)c1C#N`: the IC50 on PIK3CG (human) [1] was 1100 nM; against PIK3CA (human) [2] it was 5500 nM; against PIK3CD (Human) [3] it was 38 nM; against PIK3CG (human) [4], 1580 nM; against PIK3CA (human) [5], more than 10000 nM; on PIK3CD (Human) [6], 103 nM.

Take `Cc1nc(N)nc(N2C[C@@H](O)C[C@H]2c2nc3cccc(C(F)(F)F)c3c(=O)n2-c2cccnc2)c1C#N`: the IC50 against PIK3CG (human) [1] was 220 nM; on PIK3CA (human) [2], 1800 nM; against PIK3CD (Human) [3] it was 960 nM; on PIK3CG (human) [4], 206 nM; against PIK3CA (human) [5], more than 10000 nM; against PIK3CD (Human) [6], 67 nM.

Consider `Nc1nc(N2CCC[C@H]2c2nc3cccc(Cl)c3c(=O)n2N2CCOCC2)c2nc[nH]c2n1`, for which the IC50 against PIK3CG (human) [1] is 63 nM; on PIK3CA (human) [2], 4600 nM; against PIK3CD (Human) [3] it was 42 nM; at PIK3CG (human) [4], 1820 nM; against PIK3CA (human) [5], more than 10000 nM; against PIK3CD (Human) [6], 65 nM.

As to `N#Cc1c(N)ncnc1N1CCC[C@H]1c1nc2cccc(Cl)c2c(=O)n1-c1ccccc1`, the half-inhibitory concentration (IC50) against PIK3CG (human) [1] was 24 nM; at PIK3CA (human) [2], 393 nM; at PIK3CD (Human) [3] it was less than 3 nM; against PIK3CG (human) [4], 74 nM; against PIK3CA (human) [5] it was 1750 nM; against PIK3CD (Human) [6], 7 nM.

With `Nc1nc(N2C[C@@H](F)C[C@H]2c2nc3cccc(C(F)(F)F)c3c(=O)n2-c2cccc(F)c2)c2nc[nH]c2n1`, the IC50 on PIK3CG (human) [1] was 38 nM; against PIK3CA (human) [2] it was 2500 nM; at PIK3CD (Human) [3] it was 26 nM; against PIK3CG (human) [4], 71 nM; on PIK3CA (human) [5] it was 8250 nM; against PIK3CD (Human) [6] it was 50 nM.

As for `Cc1nc(N)nc(N2C[C@@H](F)C[C@H]2c2nc3cccc(C(F)(F)F)c3c(=O)n2-c2cccnc2)c1C#N`, the IC50 is 35 nM on PIK3CG (human) [1]; 1300 nM at PIK3CA (human) [2]; 26 nM on PIK3CD (Human) [3]; 53 nM against PIK3CG (human) [4]; 4200 nM against PIK3CA (human) [5]; 23 nM at PIK3CD (Human) [6].

Take `Nc1nc(N2CCC[C@H]2c2nc3cccc(C(F)(F)F)c3c(=O)n2-c2cncc(F)c2)c2nc[nH]c2n1`: the IC50 was 320 nM against PIK3CG (human) [1]; more than 10000 nM on PIK3CA (human) [2]; 160 nM against PIK3CD (Human) [3]; 324 nM against PIK3CG (human) [4]; more than 10000 nM against PIK3CA (human) [5]; 164 nM against PIK3CD (Human) [6].

On to `Cn1cnc2c(N3CCC[C@H]3c3nc4cccc(Cl)c4c(=O)n3-c3ccccc3)nc(N)nc21`, for which the IC50 is 305 nM against PIK3CG (human) [1]; 3700 nM against PIK3CA (human) [2]; 52 nM against PIK3CD (Human) [3]; 216 nM at PIK3CG (human) [4]; more than 10000 nM against PIK3CA (human) [5]; 110 nM on PIK3CD (Human) [6].

Consider `Nc1nc(N2C[C@@H](F)C[C@H]2c2nc3cccc(C(F)(F)F)c3c(=O)n2-c2ccccc2)c2nc[nH]c2n1`, for which the IC50 against PIK3CG (human) [1] was found to be 9 nM; against PIK3CA (human) [2], 1300 nM; against PIK3CD (Human) [3], 18 nM; against PIK3CG (human) [4] it was 45 nM; against PIK3CA (human) [5] it was 3300 nM; against PIK3CD (Human) [6], 29 nM.

Take `N#Cc1c(N)ncnc1N1C[C@@H](O)C[C@H]1c1nc2cccc(Cl)c2c(=O)n1-c1ccccc1`: the IC50 was 50 nM on PIK3CG (human) [1]; 1000 nM against PIK3CA (human) [2]; 4 nM against PIK3CD (Human) [3]; 268 nM on PIK3CG (human) [4]; 2850 nM on PIK3CA (human) [5]; less than 3 nM at PIK3CD (Human) [6].

Turning to `CO[C@H]1C[C@@H](c2nc3cccc(Cl)c3c(=O)n2-c2ccccc2)N(c2nc(N)nc(C)c2C#N)C1`, the IC50 against PIK3CG (human) [1] was 30 nM; against PIK3CA (human) [2], 565 nM; at PIK3CD (Human) [3], 53 nM; on PIK3CG (human) [4] it was 38 nM; on PIK3CA (human) [5], 1320 nM; at PIK3CD (Human) [6], 6 nM.

As to `Nc1nc(N2CCC[C@H]2c2nc3cccc(C(F)(F)F)c3c(=O)n2-c2ccccc2)c2nccn2n1`, the IC50 is 93 nM against PIK3CG (human) [1]; 2800 nM at PIK3CA (human) [2]; 67 nM against PIK3CD (Human) [3]; 312 nM against PIK3CG (human) [4]; more than 10000 nM on PIK3CA (human) [5]; 8040 nM on PIK3CD (Human) [6].

For `Cc1nc(N)nc(N2C[C@@H](O)C[C@H]2c2nc3ccc(F)c(Cl)c3c(=O)n2-c2ccccc2)c1C#N`, the 50% inhibitory concentration (IC50) at PIK3CG (human) [1] was 14 nM; at PIK3CA (human) [2] it was 280 nM; against PIK3CD (Human) [3] it was 13 nM; against PIK3CG (human) [4], 7 nM; against PIK3CA (human) [5] it was 1950 nM; at PIK3CD (Human) [6], 10 nM.

With `Nc1nc(N2CCC[C@H]2c2nc3cccc(Cl)c3c(=O)n2C2CC2)c2nc[nH]c2n1`, the IC50 against PIK3CG (human) [1] worked out at 110 nM; on PIK3CA (human) [2] it was 3600 nM; against PIK3CD (Human) [3] it was 85 nM; against PIK3CG (human) [4], 886 nM; at PIK3CA (human) [5], 8120 nM; against PIK3CD (Human) [6], 349 nM.

For `CO[C@H]1C[C@@H](c2nc3cccc(Cl)c3c(=O)n2-c2ccccc2)N(c2nc(N)nn3ccnc23)C1`, the IC50 was 78 nM against PIK3CG (human) [1]; 7200 nM on PIK3CA (human) [2]; 140 nM against PIK3CD (Human) [3]; 793 nM against PIK3CG (human) [4]; more than 10000 nM against PIK3CA (human) [5]; 204 nM against PIK3CD (Human) [6].

The IC50 is the concentration needed to halve the response being measured. Low readings indicate inhibition by little substance, high ones a need for much substance.

(Values after the Kinase Knowledgebase extract (Sharma et al. 2016).)
